Measurements from patent US8877351B2, “Organometallic complex, and lighting apparatus, and electronic device using the organometallic complex” (Semiconductor Energy Laboratory Co., Ltd., priority 2008, dated 2014).

Assay: solubility determination in organic solvents
Assay type: physicochemical
Excerpt: It is confirmed that Ir(dbq-tBuP)2(acac) can be dissolved in each of 2-ethoxyethanol, 1,4-dioxane, chloroform, and toluene.

Q: What does the source list for CC(=O)C=C(C)[O][Ir]([c]1cc(C(C)(C)C)ccc1-c1cnc2c3ccccc3c3ccccc3c2n1)[c]1cc(C(C)(C)C)ccc1-c1cnc2c3ccccc3c3ccccc3c2n1 [Ir(dbq-tBuP)2(acac), (acetylacetonato)bis{2-(4-tert-butylphenyl)-dibenzo[f,h]quinoxalinato}iridium(III)]?
A: solubility (in chloroform): ≥ 1200 µg/mL; solubility (in toluene): ≥ 1200 µg/mL; Solubility x (solvent: Chloroform): 1.2 ≦ x g/L; Solubility x (solvent: Ethanol): x < 0.6 g/L; Solubility x (solvent: Isopropyl alcohol): x < 0.6 g/L; Solubility x (solvent: Toluene): 1.2 ≦ x g/L
